Assays:
[1] = system: IgE-induced degranulation of tissue mast cells; assay: Mouse model of passive cutaneous anaphylaxis (PCA); format: in vivo; details: for % Inhibition (PCA) / Plasma level: PO, 1.5% Avicel/water, pretreatment 15 min
Method: This model provides a direct measure of IgE-induced degranulation of tissue mast cells. In this model, IgE primed animals are exposed to an allergen challenge, and the change in permeability of dermal vasculature that results from histamine release from mast cells is measured by change in the amount of dye leakage into surrounding tissue. Inhibition of mediator release by compounds that modulate mast cell degranulation is easily measured by extracting the dye from the tissue.
In the PCA assay mice are passively sensitized by intradermal injection with anti-dinitrophenol (DNP) IgE antibodies (Day −1). At predetermined times animals are treated with the test agent (Day 0). The modulatory effect of the agent on cutaneous mast cell degranulation is measured following intravenous injection of DNP conjugated to human serum albumin (HSA-DNP), together with Evans blue dye. The resulting cross-linking of the IgE receptor and subsequent mast cell degranulation-induced increase in vascular permeability is determined by measuring the amount of dye extravasation into the tissue. Dye is extracted from the tissue by formamide, and the absorbance of this extract is read at 620 nm.

[2] = in vitro chromosomal aberration assay
CHMC cells = assay: Phosphorylation of proteins downstream of Syk / LYN kinase in the FcεRI cascade, activated CHMC cells; format: cell-based, human; details: varying concentrations, FIG. 10
[3] = Mouse model of allergic asthma (ovalbumin); format: in vivo; details: less stringent protocol; subcutaneously 70 mg/kg in 67% PEG400/33% citrate buffer, 30 minutes prior to challenge
Source text: Mice are sensitized to ovalbumin (chicken protein) in the presence of an adjuvant (Alum) by the intraperitoneal route on day 0 and day 7. One week later, mice are challenged intranasally with ovalbumin on Days 14, 15 and 16 (more stringent model) or on Day 14 (less stringent model). This sensitization and challenge regimen leads to airway hyperresponsiveness and inflammation in the lungs, which are two dominant characteristics of human allergic asthma. In the mouse model, the in vivo airway responses are measured using a whole body plethysmograph which determines the PENH (enhanced Pause, Buxco Electronics). The PENH is a dimensionless value comprised of the peak inspiratory flow (PIF), peak expiratory flow (PEF), time of inspiration, time of expiration and relaxation time, and is considered a validated parameter of airway responsiveness. Responses to allergen challenge (OVA) are compared with animals challenged with saline only. Twenty-four hours after challenge, mice are exposed to increasing doses of methacholine (muscarinic receptor agonist) which results in smooth muscle contraction. […] In addition, a cellular infiltrate in the airway is observed in ovalbumin challenged mice when compared with the saline challenged mice. This cellular infiltrate is mainly characterized by eosinophils, but a smaller influx of neutrophils and mononuclear cells is also present.
The use of this model for the evaluation of small molecule inhibitors of mast cell degranulation has been validated is several ways. First, using mast cell deficient mice (W/W^v) it has been shown that the ovalbumin-induced responses are dependent upon the presence of mast cells.

SMILES: CNC(=O)COc1cccc(Nc2ncc(F)c(Nc3ccc4c(c3)NCCO4)n2)c1 [R921219, N4-(1,4-Benzoxazin-6-yl)-5-fluoro-N2-[3-(N-methylamino)carbonylmethyleneoxyphenyl]-2,4-pyrimidinediamine]
- % Inhibition (PCA) ([1]; 30 mg/kg): 25%
- Plasma level ([1]; 30 mg/kg): 400 ng/mL
- % Inhibition (PCA) ([1]; 100 mg/kg): 68%
- Plasma level ([1]; 100 mg/kg): 4000 ng/mL
- % Inhibition (PCA) ([1]; 300 mg/kg): 92%
- Plasma level ([1]; 300 mg/kg): 11000 ng/mL
- circulating exposure levels at which active ([1]; mouse, in vivo): approximately 10 μg/ml
- FcεR-mediated vascular leakage with increasing doses (in words) ([1]; solution (67% PEG/33% citrate buffer) or aqueous suspension (1.5% Avicel)): dose-dependent inhibition
- clastogenic potential [2]: not found to possess clastogenic potential
- phosphorylation of proteins downstream of Syk kinase (CHMC cells): inhibit
- ovalbumin-induced airway hyperresponsiveness and cellular influx [3]: completely blocked
